US20100190747A1, “Fused ring compound and use thereof” (priority 2009, published 2010)

molecular target: T1, delta-5-desaturase (Rattus norvegicus, UniProt Q920R3); assay: Inhibitory activity on delta-5-desaturase (rat liver microsomal fraction, 14C-eicosatrienoic acid, TLC); format: biochemical; conditions: test compound at 10 μM, room temperature, 120 minutes
T1 construct: the microsomal fraction of a rat river (10 μl), which had been diluted to 3 mg/ml; from tissue; host or cells: rat liver microsomal fraction
Procedure: An inhibitory activity of a test compound on delta-5-desaturase was measured according to the method described herein below. To a DMSO solution of the test compound which had been previously prepared, secondary dilution was carried out by using a buffer (300 mM NaH2PO4 [pH 7.4], 450 mM KCl, 30 mM NaF, 9 mM MgCl2, 4.5 mM glutathione [reduced form], 0.3% BSA [fatty acid free, SIGMA]). This diluent compound (10 μl) was added in a 96-well deep well block made of polypropylene, and then the microsomal fraction of a rat river (10 μl), which had been diluted to 3 mg/ml by using a microsome buffer (10 mM Tris-HCl [pH 7.4], 1 mM EDTA, and 250 mM sucrose), was added thereto. The enzyme reaction was initiated by adding 10 μl of 9 mM NADH, 9 mM ATP, 0.9 mM CoA and 10 μCi/ml (8E,11E,14E)-(1-^14C)eicosa-8,11,14-trienoic acid (PerkinElmer Inc.). The enzyme reaction was carried out at room temperature for 120 minutes, and then terminated by addition of 2.5 M NaOH (10 μl). Upon the completion of the reaction, the plate was covered with plate seal and incubated overnight in a dry heater of which temperature was set at 55° C. for saponification. Based on Bligh & Dyer method which had been described in a known document, Canadian Journal of Biochemistry and Physiology (Can. J. Biochem. Physiol.), Vol. 37, page 911, 1959), the solvent extraction of fatty acid was carried out by adding 200 μl of formic acid:methanol:chloroform (1:6:3), keeping the mixture as a single layer for a while, stirring the mixture to a sufficient level, and adding 120 μl of pure water to separate the mixture into two layers. 10 μl of the bottom chloroform layer was spotted on a reverse phase TLC plate (RP-18, 1154230001, Merck Japan, Ltd.) and then developed with acetonitrile:pure water:acetic acid (95:4.5:0.5). The TLC plate obtained after drying was transferred to an Imaging Plate (Fuji Photo Film Co., Ltd.) for more than 5 hours. Detection was carried out by using BAS-5000 (Fuji Photo Film Co., Ltd.). Numerization of thus-obtained image was carried out by using Multi Gauge Ver 2.3 (Fuji Photo Film Co., Ltd.) and an inhibitory ratio (%) of the test compound at 10 μM on delta-5-desaturase was obtained.

T1 sequence (Q920R3 whole entry): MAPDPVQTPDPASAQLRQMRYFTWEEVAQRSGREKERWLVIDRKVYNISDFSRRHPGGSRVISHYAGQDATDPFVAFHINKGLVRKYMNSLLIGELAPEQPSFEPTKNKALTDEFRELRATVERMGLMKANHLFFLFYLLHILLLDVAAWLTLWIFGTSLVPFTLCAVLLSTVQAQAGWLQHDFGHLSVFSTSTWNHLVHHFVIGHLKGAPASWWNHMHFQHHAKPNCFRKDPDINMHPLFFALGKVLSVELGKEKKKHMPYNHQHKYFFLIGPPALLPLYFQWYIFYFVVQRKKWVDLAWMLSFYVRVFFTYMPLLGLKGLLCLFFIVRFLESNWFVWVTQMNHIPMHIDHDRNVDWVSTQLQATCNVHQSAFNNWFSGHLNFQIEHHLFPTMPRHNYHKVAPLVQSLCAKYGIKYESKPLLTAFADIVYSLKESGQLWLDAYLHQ

inhibition at 10 µM [%]	SMILES
99	CCOc1ccc(-n2c(SCCCC(=O)NCCC#N)nc3cc[nH]c3c2=O)cc1 [Example 60, N-(2-cyanoethyl)-4-{[3-(4-ethoxyphenyl)-4-oxo-4,5-dihydro-3H-pyrrolo[3,2-d]pyrimidin-2-yl]sulfanyl}butanamide]
102	CCOc1ccc(-n2c(SCCCS(=O)(=O)NCCC#N)nc3cc[nH]c3c2=O)cc1 [Example 62, N-(2-cyanoethyl)-3-{[3-(4-ethoxyphenyl)-4-oxo-4,5-dihydro-3H-pyrrolo[3,2-d]pyrimidin-2-yl]sulfanyl}propane-1-sulfonamide]
98	CCOc1ccc(-n2c(SCCCC(=O)NCC#N)nc3cc[nH]c3c2=O)cc1 [Example 63, N-(cyanomethyl)-4-{[3-(4-ethoxyphenyl)-4-oxo-4,5-dihydro-3H-pyrrolo[3,2-d]pyrimidin-2-yl]sulfanyl}butanamide]
97	CCOc1ccc(-n2c(SCCCCC(=O)NCCC#N)nc3cc[nH]c3c2=O)cc1 [Example 65, N-(2-cyanoethyl)-5-{[3-(4-ethoxyphenyl)-4-oxo-4,5-dihydro-3H-pyrrolo[3,2-d]pyrimidin-2-yl]sulfanyl}pentanamide]
101	CCOc1ccc(-n2c(SCCCC(=O)N(C)CCC#N)nc3cc[nH]c3c2=O)cc1 [Example 66, N-(2-cyanoethyl)-4-{[3-(4-ethoxyphenyl)-4-oxo-4,5-dihydro-3H-pyrrolo[3,2-d]pyrimidin-2-yl]sulfanyl}-N-methylbutanamide]
96	N#CCCNC(=O)CCCSc1nc2cc[nH]c2c(=O)n1-c1ccc(OCC(F)(F)F)cc1 [Example 67]
101	CCOCCSc1nc2cc[nH]c2c(=O)n1-c1ccc(OCC(F)(F)F)cc1 [Example 74, 2-[(2-Ethoxyethyl)sulfanyl]-3-[4-(2,2,2-trifluoroethoxy)phenyl]-3,5-dihydro-4H-pyrrolo[3,2-d]pyrimidin-4-one]
99	O=C(CCCSc1nc2cc[nH]c2c(=O)n1-c1ccc(OCC(F)(F)F)cc1)NCC(F)(F)F [Example 75, 4-({4-Oxo-3-[4-(2,2,2-trifluoroethoxy)phenyl]-4,5-dihydro-3H-pyrrolo[3,2-d]pyrimidin-2-yl}sulfanyl)-N-(2,2,2-trifluoroethyl)butanamide]
99	O=C(CCCSc1nc2cc[nH]c2c(=O)n1-c1ccc(OCC(F)(F)F)cc1)NC1CC1 [Example 76, N-cyclopropyl-4-({4-oxo-3-[4-(2,2,2-trifluoroethoxy)phenyl]-4,5-dihydro-3H-pyrrolo[3,2-d]pyrimidin-2-yl}sulfanyl)butanamide]
100	O=C(CCCSc1nc2cc[nH]c2c(=O)n1-c1ccc(OCC(F)(F)F)cc1)N1CCCCC1 [Example 77, 2-[(4-Oxo-4-piperidin-1-ylbutyl)sulfanyl]-3-[4-(2,2,2-trifluoroethoxy)phenyl]-3,5-dihydro-4H-pyrrolo[3,2-d]pyrimidin-4-one]
101	COCCOCCCSc1nc2cc[nH]c2c(=O)n1-c1ccc(OCC(F)(F)F)cc1 [Example 78, 2-{[3-(2-Methoxyethoxy)propyl]sulfanyl}-3-[4-(2,2,2-trifluoroethoxy)phenyl]-3,5-dihydro-4H-pyrrolo[3,2-d]pyrimidin-4-one]
99	CCOCCOCCSc1nc2cc[nH]c2c(=O)n1-c1ccc(OCC(F)(F)F)cc1 [Example 79, 2-{[2-(2-Ethoxyethoxy)ethyl]sulfanyl}-3-[4-(2,2,2-trifluoroethoxy)phenyl]-3,5-dihydro-4H-pyrrolo[3,2-d]pyrimidin-4-one]
98	CS(=O)(=O)CCCSc1nc2cc[nH]c2c(=O)n1-c1ccc(OCC(F)(F)F)cc1 [Example 80, 2-{[3-(Methylsulfonyl)propyl]sulfanyl}-3-[4-(2,2,2-trifluoroethoxy)phenyl]-3,5-dihydro-4H-pyrrolo[3,2-d]pyrimidin-4-one]
97	CCOCCCSc1nc2cc[nH]c2c(=O)n1-c1ccc(OCC(F)(F)F)cc1 [Example 81, 2-[(3-Ethoxypropyl)sulfanyl]-3-[4-(2,2,2-trifluoroethoxy)phenyl]-3,5-dihydro-4H-pyrrolo[3,2-d]pyrimidin-4-one]
101	N#CCCNC(=O)CCCSc1nc2cc[nH]c2c(=O)n1-c1ccc(OCC2CCC2)cc1 [Example 82, N-(2-cyanoethyl)-4-({3-[4-(cyclobutylmethoxy)phenyl]-4-oxo-4,5-dihydro-3H-pyrrolo[3,2-d]pyrimidin-2-yl}sulfanyl)butanamide]
99	CC(CCSc1nc2cc[nH]c2c(=O)n1-c1ccc(OCC(F)(F)F)cc1)C(=O)NCCC#N (stereo not shown) [Example 85, N-(2-cyanoethyl)-2-methyl-4-({4-oxo-3-[4-(2,2,2-trifluoroethoxy)phenyl]-4,5-dihydro-3H-pyrrolo[3,2-d]pyrimidin-2-yl)sulfanyl)butanamide]
99	N#CCCCSc1nc2cc[nH]c2c(=O)n1-c1ccc(OCC(F)(F)F)cc1 [Example 86, 4-({4-Oxo-3-[4-(2,2,2-trifluoroethoxy)phenyl]-4,5-dihydro-3H-pyrrolo[3,2-d]pyrimidin-2-yl}sulfanyl)butanenitrile]
99	N#CCCCCSc1nc2cc[nH]c2c(=O)n1-c1ccc(OCC(F)(F)F)cc1 [Example 87, 5-({4-Oxo-3-[4-(2,2,2-trifluoroethoxy)phenyl]-4,5-dihydro-3H-pyrrolo[3,2-d]pyrimidin-2-yl}sulfanyl)pentanenitrile]
100	N#CCCCCCSc1nc2cc[nH]c2c(=O)n1-c1ccc(OCC(F)(F)F)cc1 [Example 88, 6-({4-Oxo-3-[4-(2,2,2-trifluoroethoxy)phenyl]-4,5-dihydro-3H-pyrrolo[3,2-d]pyrimidin-2-yl}sulfanyl)hexanenitrile]
99	N#CCCNC(=O)CCCSc1nc2cc[nH]c2c(=O)n1-c1ccc(OCCC(F)(F)F)cc1 [Example 90, N-(2-cyanoethyl)-4-({4-oxo-3-[4-(3,3,3-trifluoropropoxy)phenyl]-4,5-dihydro-3H-pyrrolo[3,2-d]pyrimidin-2-yl}sulfanyl)butanamide]
102	N#CCCNC(=O)CCCSc1nc2cc[nH]c2c(=O)n1-c1ccc(OCC2CC2)cc1 [Example 92, N-(2-cyanoethyl)-4-({3-[4-(cyclopropylmethoxy)phenyl]-4-oxo-4,5-dihydro-3H-pyrrolo[3,2-d]pyrimidin-2-yl}sulfanyl)butanamide]
101	CC1(COc2ccc(-n3c(SCCCC(=O)NCCC#N)nc4cc[nH]c4c3=O)cc2)CC1 [Example 93, N-(2-cyanoethyl)-4-[(3-{4-[(1-methylcyclopropyl)methoxy]phenyl}-4-oxo-4,5-dihydro-3H-pyrrolo[3,2-d]pyrimidin-2-yl)sulfanyl]butanamide]
100	N#CCCNC(=O)CCCSc1nc2cc[nH]c2c(=O)n1-c1ccc(OCC2CC2(F)F)cc1 (stereo not shown) [Example 95, N-(2-cyanoethyl)-4-[(3-{4-[(2,2-difluorocyclopropyl)methoxy]phenyl}-4-oxo-4,5-dihydro-3H-pyrrolo[3,2-d]pyrimidin-2-yl)sulfanyl]butanamide]
100	O=C(CCCSc1nc2cc[nH]c2c(=O)n1-c1ccc(OCC(F)(F)F)cc1)N1CCC(O)C1 (stereo not shown) [Example 97]
100	O=C(CCCSc1nc2cc[nH]c2c(=O)n1-c1ccc(OCC(F)(F)F)cc1)N1CCC(O)CC1 [Example 98, 2-{[4-(4-Hydroxypiperidin-1-yl)-4-oxobutyl]sulfanyl}-3-[4-(2,2,2-trifluoroethoxy)phenyl]-3,5-dihydro-4H-pyrrolo[3,2-d]pyrimidin-4-one]
94	CC(C)(O)CNC(=O)CCCSc1nc2cc[nH]c2c(=O)n1-c1ccc(OCC(F)(F)F)cc1 [Example 99, N-(2-hydroxy-2-methylpropyl)-4-({4-oxo-3-[4-(2,2,2-trifluoroethoxy)phenyl]-4,5-dihydro-3H-pyrrolo[3,2-d]pyrimidin-2-yl}sulfanyl)butanamide]
100	CC(C)(CO)NC(=O)CCCSc1nc2cc[nH]c2c(=O)n1-c1ccc(OCC(F)(F)F)cc1 [Example 100, N-(2-hydroxy-1,1-dimethylethyl)-4-({4-oxo-3-[4-(2,2,2-trifluoroethoxy)phenyl]-4,5-dihydro-3H-pyrrolo[3,2-d]pyrimidin-2-yl}sulfanyl)butanamide]

SMILES	inhibition at 10 µM [%]
CCCCOc1ccc(-n2c(SCCCC(=O)NCCC#N)nc3cc[nH]c3c2=O)cc1 [Example 91, 4-{[3-(4-Butoxyphenyl)-4-oxo-4,5-dihydro-3H-pyrrolo[3,2-d]pyrimidin-2-yl]sulfanyl}-N-(2-cyanoethyl)butanamide]	100
